In ChEMBL document CHEMBL3864160, “Discovery of fluorobenzimidazole HCV NS5A inhibitors” (Bioorg Med Chem Lett, 2016):
Blank lines part the entries; values can stand above or below the molecule they belong to.

Experiments:
[1] = Inhibition of Hepatitis C virus genotype 1a H77 replicon NS5A transfected in human HuH7 cells assessed as decrease in replication of viral replicon after 4 days by luciferase reporter gene assay; format: cell-based, Hepatitis C virus (isolate H77); conditions: Huh-7, 96 h
[2] = Inhibition of Hepatitis C virus genotype 1b Con1 replicon NS5A transfected in human HuH7 cells assessed as decrease in replication of viral replicon after 4 days by luciferase reporter gene assay; format: cell-based, Hepatitis C virus (isolate Con1); conditions: Huh-7, 96 h
[3] = Inhibition of Hepatitis C virus genotype 2a replicon NS5A transfected in human HuH7 cells assessed as decrease in replication of viral replicon after 4 days by luciferase reporter gene assay; format: cell-based, Hepatitis C virus subtype 2a; conditions: Huh-7, 96 h
[4] = Inhibition of Hepatitis C virus genotype 2b replicon NS5A transfected in human HuH7 cells assessed as decrease in replication of viral replicon after 4 days by luciferase reporter gene assay; format: cell-based, Hepatitis C virus subtype 2b; conditions: Huh-7, 96 h
[5] = Inhibition of Hepatitis C virus genotype 3a replicon NS5A transfected in human HuH7 cells assessed as decrease in replication of viral replicon after 4 days by luciferase reporter gene assay; format: cell-based, Hepatitis C virus subtype 3a; conditions: Huh-7, 96 h
[6] = Inhibition of Hepatitis C virus genotype 4a replicon NS5A transfected in human HuH7 cells assessed as decrease in replication of viral replicon after 4 days by luciferase reporter gene assay; format: cell-based, Hepatitis C virus subtype 4a; conditions: Huh-7, 96 h
[7] = Inhibition of Hepatitis C virus genotype 6a replicon NS5A transfected in human HuH7 cells assessed as decrease in replication of viral replicon after 4 days by luciferase reporter gene assay; format: cell-based, Hepatitis C virus subtype 6a; conditions: Huh-7, 96 h
[8] = Inhibition of Hepatitis C virus genotype 1a H77 replicon NS5A transfected in human HuH7 cells assessed as decrease in replication of viral replicon in presence of 40% human plasma after 4 days by luciferase reporter gene assay; format: cell-based, Hepatitis C virus (isolate H77); conditions: Huh-7, Plasma, 96 h
[9] = Inhibition of Hepatitis C virus genotype 1b Con1 replicon NS5A transfected in human HuH7 cells assessed as decrease in replication of viral replicon in presence of 40% human plasma after 4 days by luciferase reporter gene assay; format: cell-based, Hepatitis C virus (isolate Con1); conditions: Huh-7, Plasma, 96 h

EC50 [1]: 1.47 nM | EC50 [2]: 0.008 nM | EC50 [3]: 9.18 nM | EC50 [4]: 0.148 nM | EC50 [5]: 4.45 nM | EC50 [6]: < 0.03 nM | EC50 [7]: 3.24 nM
SMILES: COC(=O)N[C@H](C(=O)N1CCC[C@H]1c1nc2cc(-c3ccc(-c4cc5nc([C@@H]6CCCN6C(=O)[C@@H](NC(=O)OC)C(C)C)[nH]c5cc4C)cc3)c(C)cc2[nH]1)C(C)C

EC50 [1]: 0.076 nM | EC50 [2]: < 0.03 nM | EC50 [3]: 31 nM | EC50 [4]: < 0.03 nM | EC50 [5]: 0.444 nM | EC50 [6]: 0.008 nM | EC50 [7]: 0.274 nM
SMILES: COC(=O)N[C@H](C(=O)N1CCC[C@H]1c1nc2cc(-c3ccc(-c4cc5nc([C@@H]6CCCN6C(=O)[C@@H](NC(=O)OC)C(C)C)[nH]c5cc4F)cc3)c(F)cc2[nH]1)C(C)C

EC50 [1]: 1.12 nM | EC50 [2]: 0.283 nM | EC50 [3]: > 100 nM | EC50 [4]: 1.43 nM | EC50 [5]: 6.69 nM | EC50 [6]: 1.84 nM
SMILES: COC(=O)N[C@H](C(=O)N1CCC[C@H]1c1nc2nc(-c3ccc(-c4ccc5[nH]c([C@@H]6CCCN6C(=O)[C@@H](NC(=O)OC)C(C)C)nc5n4)cc3)ccc2[nH]1)C(C)C

EC50 [1]: > 100 nM | EC50 [2]: 7.44 nM | EC50 [3]: > 100 nM | EC50 [4]: > 100 nM | EC50 [5]: > 100 nM | EC50 [6]: > 100 nM
SMILES: COC(=O)N[C@H](C(=O)N1CCC[C@H]1c1cc2nc(-c3ccc(-c4ccc5[nH]c([C@@H]6CCCN6C(=O)[C@@H](NC(=O)OC)C(C)C)cc5n4)cc3)ccc2[nH]1)C(C)C

EC50 [1]: 25.5 nM | EC50 [2]: 0.093 nM | EC50 [3]: > 100 nM | EC50 [4]: 88.6 nM | EC50 [5]: > 100 nM | EC50 [6]: 0.548 nM | EC50 [7]: > 100 nM
SMILES: COC(=O)N[C@H](C(=O)N1CCC[C@H]1c1nc2cc(-c3ccc(-c4cc5nc([C@@H]6CCCN6C(=O)[C@@H](NC(=O)OC)C(C)C)[nH]c5cc4OC)cc3)c(OC)cc2[nH]1)C(C)C

EC50 [1]: 0.272 nM | EC50 [2]: 0.022 nM | EC50 [3]: 75.5 nM | EC50 [4]: 0.06 nM | EC50 [5]: 1.12 nM | EC50 [6]: 0.062 nM
SMILES: COC(=O)N[C@H](C(=O)N1CCC[C@H]1c1nc2ccc(-c3ccc(-c4ccc5nc([C@@H]6CCCN6C(=O)[C@@H](NC(=O)OC)C(C)C)[nH]c5c4)cc3)cc2[nH]1)C(C)C

EC50 [1]: 1.18 nM | EC50 [2]: 0.193 nM | EC50 [3]: > 100 nM | EC50 [4]: 77.5 nM | EC50 [5]: 15.5 nM | EC50 [6]: 1.19 nM | EC50 [7]: > 100 nM
SMILES: COCc1c(-c2ccc(-c3ccc4[nH]c([C@@H]5CCCN5C(=O)[C@@H](NC(=O)OC)C(C)C)nc4c3COC)cc2)ccc2[nH]c([C@@H]3CCCN3C(=O)[C@@H](NC(=O)OC)C(C)C)nc12

EC50 [1]: 5.58 nM | EC50 [2]: 1.54 nM | EC50 [3]: > 100 nM | EC50 [4]: 6.5 nM | EC50 [5]: > 100 nM | EC50 [6]: 1.1 nM
SMILES: COC(=O)N[C@H](C(=O)N1CCC[C@H]1c1nc2cc(-c3ccc(-c4cnc5[nH]c([C@@H]6CCCN6C(=O)[C@@H](NC(=O)OC)C(C)C)nc5c4)cc3)cnc2[nH]1)C(C)C

EC50 [1]: 0.507 nM | EC50 [2]: 0.016 nM | EC50 [3]: 43.1 nM | EC50 [4]: 0.218 nM | EC50 [5]: 1.43 nM | EC50 [6]: 0.077 nM | EC50 [7]: 17.3 nM
SMILES: COC(=O)N[C@H](C(=O)N1CCC[C@H]1c1nc2c(F)c(-c3ccc(-c4c(F)cc5[nH]c([C@@H]6CCCN6C(=O)[C@@H](NC(=O)OC)C(C)C)nc5c4F)cc3)c(F)cc2[nH]1)C(C)C

EC50 [1]: 0.129 nM | EC50 [2]: 0.013 nM | EC50 [3]: 40.2 nM | EC50 [4]: 0.222 nM | EC50 [5]: 0.645 nM | EC50 [6]: 0.33 nM | EC50 [7]: 4.75 nM
SMILES: COC(=O)N[C@H](C(=O)N1CCC[C@H]1c1nc2c(F)c(-c3ccc(-c4ccc5[nH]c([C@@H]6CCCN6C(=O)[C@@H](NC(=O)OC)C(C)C)nc5c4F)cc3)ccc2[nH]1)C(C)C

EC50 [1]: 0.038 nM | EC50 [2]: 0.014 nM | EC50 [3]: 28 nM | EC50 [4]: 0.32 nM | EC50 [5]: 0.104 nM | EC50 [6]: 0.014 nM | EC50 [7]: 7.05 nM
SMILES: COC(=O)N[C@H](C(=O)N1CCC[C@H]1c1nc2c(C)c(-c3ccc(-c4ccc5[nH]c([C@@H]6CCCN6C(=O)[C@@H](NC(=O)OC)C(C)C)nc5c4C)cc3)ccc2[nH]1)C(C)C

The remaining lines, values behind:

SMILES: COC(=O)N[C@H](C(=O)N1CCC[C@H]1c1nc2c(F)c([C@H]3CC[C@H](c4ccc5[nH]c([C@@H]6CCCN6C(=O)[C@@H](NC(=O)OC)C(C)C)nc5c4F)N3c3ccc(C(C)(C)C)cc3)ccc2[nH]1)C(C)C
EC50 [1]: 0.022 nM | EC50 [8]: 0.823 nM | EC50 [2]: 0.01 nM | EC50 [9]: 0.211 nM | EC50 [3]: 0.612 nM | EC50 [4]: 0.009 nM | EC50 [5]: 0.02 nM | EC50 [6]: 0.007 nM | EC50 [7]: 0.114 nM

SMILES: COC(=O)N[C@H](C(=O)N1CCC[C@H]1c1nc2cc(-c3ccc(-c4cc(OC)c5[nH]c([C@@H]6CCCN6C(=O)[C@@H](NC(=O)OC)C(C)C)nc5c4)cc3)cc(OC)c2[nH]1)C(C)C
EC50 [1]: 0.628 nM | EC50 [2]: 0.095 nM | EC50 [3]: > 100 nM | EC50 [4]: 56.8 nM | EC50 [5]: 92.4 nM | EC50 [6]: 0.162 nM | EC50 [7]: > 100 nM

SMILES: COC(=O)N[C@H](C(=O)N1CCC[C@H]1c1nc2cc(-c3ccc(-c4cc(C(F)(F)F)c5[nH]c([C@@H]6CCCN6C(=O)[C@@H](NC(=O)OC)C(C)C)nc5c4)cc3)cc(C(F)(F)F)c2[nH]1)C(C)C
EC50 [1]: 23 nM | EC50 [2]: 0.107 nM | EC50 [3]: > 100 nM | EC50 [4]: > 10 nM | EC50 [5]: > 100 nM | EC50 [6]: 1.9 nM | EC50 [7]: > 10 nM

SMILES: COC(=O)N[C@H](C(=O)N1CCC[C@H]1c1nc2c(Cl)c([C@H]3CC[C@H](c4ccc5[nH]c([C@@H]6CCCN6C(=O)[C@@H](NC(=O)OC)C(C)C)nc5c4Cl)N3c3ccc(C(C)(C)C)cc3)ccc2[nH]1)C(C)C
EC50 [1]: 0.034 nM | EC50 [8]: 1.85 nM | EC50 [2]: 0.013 nM | EC50 [9]: 0.731 nM | EC50 [3]: 1.83 nM | EC50 [4]: 0.038 nM | EC50 [5]: 0.037 nM | EC50 [6]: 0.01 nM | EC50 [7]: 0.59 nM

SMILES: COC(=O)N[C@H](C(=O)N1CCC[C@H]1c1nc2cc(-c3ccc(-c4cc(C)c5[nH]c([C@@H]6CCCN6C(=O)[C@@H](NC(=O)OC)C(C)C)nc5c4)cc3)cc(C)c2[nH]1)C(C)C
EC50 [1]: 0.98 nM | EC50 [2]: 0.031 nM | EC50 [3]: > 100 nM | EC50 [4]: 3.93 nM | EC50 [5]: 17.5 nM | EC50 [6]: 0.404 nM | EC50 [7]: 22.9 nM

SMILES: COC(=O)N[C@H](C(=O)N1CCC[C@H]1c1nc2cc(-c3ccc(-c4cc(F)c5[nH]c([C@@H]6CCCN6C(=O)[C@@H](NC(=O)OC)C(C)C)nc5c4)cc3)cc(F)c2[nH]1)C(C)C
EC50 [1]: 0.579 nM | EC50 [2]: < 0.03 nM | EC50 [3]: 13.8 nM | EC50 [4]: 0.516 nM | EC50 [5]: 6.49 nM | EC50 [6]: 0.04 nM

SMILES: COC(=O)N[C@H](C(=O)N1CCC[C@H]1c1nc2cc(-c3ccc(-c4cc5nc([C@@H]6CCCN6C(=O)[C@@H](NC(=O)OC)C(C)C)[nH]c5cc4C(F)(F)F)cc3)c(C(F)(F)F)cc2[nH]1)C(C)C
EC50 [1]: 12 nM | EC50 [2]: 0.006 nM | EC50 [3]: 49.6 nM | EC50 [4]: 4.49 nM | EC50 [5]: 43.4 nM | EC50 [6]: 0.049 nM | EC50 [7]: 21.5 nM

SMILES: COC(=O)N[C@H](C(=O)N1CCC[C@H]1c1nc2c(C)c([C@H]3CC[C@H](c4ccc5[nH]c([C@@H]6CCCN6C(=O)[C@@H](NC(=O)OC)C(C)C)nc5c4C)N3c3ccc(C(C)(C)C)cc3)ccc2[nH]1)C(C)C
EC50 [1]: 0.01 nM | EC50 [8]: 0.52 nM | EC50 [2]: 0.01 nM | EC50 [9]: 0.557 nM | EC50 [3]: 0.594 nM | EC50 [4]: 0.025 nM | EC50 [5]: 0.02 nM | EC50 [6]: 0.005 nM | EC50 [7]: 0.132 nM
